Data on three compounds can be found in publication PMC12648652, “Combining AlphaFold with Focused Virtual Library Design in the Development of Novel CCR2 and CCR5 Antagonists” (Journal of Chemical Information and Modeling, 2025).

The assay addresses CC chemokine receptor 2 (CCR2) (Homo sapiens, UniProt P41597).

Sequence of CC chemokine receptor 2 (CCR2) (P41597 whole entry): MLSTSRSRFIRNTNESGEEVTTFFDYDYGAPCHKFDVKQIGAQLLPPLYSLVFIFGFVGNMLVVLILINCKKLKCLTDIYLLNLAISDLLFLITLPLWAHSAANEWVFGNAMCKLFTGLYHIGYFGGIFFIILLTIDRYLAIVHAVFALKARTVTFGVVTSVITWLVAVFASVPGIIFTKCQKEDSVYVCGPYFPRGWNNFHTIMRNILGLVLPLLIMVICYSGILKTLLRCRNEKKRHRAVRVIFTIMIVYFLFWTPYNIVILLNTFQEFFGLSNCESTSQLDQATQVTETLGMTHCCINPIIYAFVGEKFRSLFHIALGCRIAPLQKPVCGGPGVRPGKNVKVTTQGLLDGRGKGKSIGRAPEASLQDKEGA

A word on the Ki: it is the dissociation constant of the complex between target and ligand, obtained from inhibition or displacement. A higher Ki goes with weaker binding. On to `COc1ccc(S(=O)(=O)Nc2cncc(N3CCOCC3)n2)cc1` [compound 13, LUF8070], for which affinity was put at a Ki of 3.26 µM.

`O=S(=O)(Nc1cncc(N2CCOCC2)n1)c1ccc(Cl)c(Cl)c1` [compound 17, LUF8075] yielded a Ki of 1.32 µM.

`O=S(=O)(Nc1cncc(N2CCCCC2)n1)c1ccc(Cl)c(C(F)(F)F)c1` [compound 20, LUF8100] showed a Ki of 5.95 µM.
